Experimental data reported in US20120225862A1, “HETEROARYL BENZAMIDES, COMPOSITIONS AND METHODS OF USE” (AUCKLAND UNIVSERVICES LIMITED, priority 2009, published 2012).

Columns and labels:
EphA1 = target: T1, EphA1 (Homo sapiens, UniProt P21709); assay: In vitro kinase activity (Millipore KinaseProfiler): EphA1; assay type: biochemical; details: no head or unit printed
T1 construct: purchased Millipore (KinaseProfiler service)
Procedure: (§1) All cells were grown in DMEM+10% FCS. ACHN and ACHN shVHL were a kind gift from George V. Thomas (UCLA). HIF overexpressing clones were described previously. Transfection of RNA oligos were performed with DnarmaFECT Reagent 1 (Dharmcon), according to manufacturer's directions. ON-TARGETplus SMART pools against HIF-1β/ARNT were purchased from Dharmacon. Glut1 was detected with anti-GLUT1 antibody from NeoMarkers/LabVision/Fisher. Pyruvate/lactate levels and hexokinase activity were both measured by fluorometric assay (BioVision and Sigma-Aldrich, respectively). ATP levels were measured by bioluminescence assay (ATP Determination Kit from Molecular Probes/Invitrogen). In vitro kinase activities were performed by Millipore KinaseProfiler. Affi-Gel 10 (BioRad) activated affinity media was coupled to analogs to generate immobilized affinity linkers.
(§2) We next wanted to investigate the differential glucose uptake between RCCs with and without VHL treated with compound 47 that subsequently lead to the selective death of VHL-deficient cells. We first examined the message levels of the two main glucose transporters, GLUT1 and GLUT2 by quantitative real-time PCR. GLUT1 is an inducible, high-affinity glucose transporter, while GLUT2 is the glucose transporter responsible for basal glucose uptake. […] Cells deficient in VHL had very low levels of GLUT2 that could barely be detected (FIG. 3J). […]

AMPK = assay: In vitro kinase activity (Millipore KinaseProfiler): AMPK; assay type: biochemical; details: no head or unit printed
Procedure: as §1, §2

ACHN shVHL = assay: Clonogenic survival, ACHN with shRNA to VHL; assay type: cell-based, human; details: FIG. 2E
IR = target: T2, IR (Homo sapiens, UniProt P06213); assay: In vitro kinase activity (Millipore KinaseProfiler): IR; assay type: biochemical; details: no head or unit printed
T2 construct: purchased Millipore (KinaseProfiler service)
T2 sequence (P06213 28-1382): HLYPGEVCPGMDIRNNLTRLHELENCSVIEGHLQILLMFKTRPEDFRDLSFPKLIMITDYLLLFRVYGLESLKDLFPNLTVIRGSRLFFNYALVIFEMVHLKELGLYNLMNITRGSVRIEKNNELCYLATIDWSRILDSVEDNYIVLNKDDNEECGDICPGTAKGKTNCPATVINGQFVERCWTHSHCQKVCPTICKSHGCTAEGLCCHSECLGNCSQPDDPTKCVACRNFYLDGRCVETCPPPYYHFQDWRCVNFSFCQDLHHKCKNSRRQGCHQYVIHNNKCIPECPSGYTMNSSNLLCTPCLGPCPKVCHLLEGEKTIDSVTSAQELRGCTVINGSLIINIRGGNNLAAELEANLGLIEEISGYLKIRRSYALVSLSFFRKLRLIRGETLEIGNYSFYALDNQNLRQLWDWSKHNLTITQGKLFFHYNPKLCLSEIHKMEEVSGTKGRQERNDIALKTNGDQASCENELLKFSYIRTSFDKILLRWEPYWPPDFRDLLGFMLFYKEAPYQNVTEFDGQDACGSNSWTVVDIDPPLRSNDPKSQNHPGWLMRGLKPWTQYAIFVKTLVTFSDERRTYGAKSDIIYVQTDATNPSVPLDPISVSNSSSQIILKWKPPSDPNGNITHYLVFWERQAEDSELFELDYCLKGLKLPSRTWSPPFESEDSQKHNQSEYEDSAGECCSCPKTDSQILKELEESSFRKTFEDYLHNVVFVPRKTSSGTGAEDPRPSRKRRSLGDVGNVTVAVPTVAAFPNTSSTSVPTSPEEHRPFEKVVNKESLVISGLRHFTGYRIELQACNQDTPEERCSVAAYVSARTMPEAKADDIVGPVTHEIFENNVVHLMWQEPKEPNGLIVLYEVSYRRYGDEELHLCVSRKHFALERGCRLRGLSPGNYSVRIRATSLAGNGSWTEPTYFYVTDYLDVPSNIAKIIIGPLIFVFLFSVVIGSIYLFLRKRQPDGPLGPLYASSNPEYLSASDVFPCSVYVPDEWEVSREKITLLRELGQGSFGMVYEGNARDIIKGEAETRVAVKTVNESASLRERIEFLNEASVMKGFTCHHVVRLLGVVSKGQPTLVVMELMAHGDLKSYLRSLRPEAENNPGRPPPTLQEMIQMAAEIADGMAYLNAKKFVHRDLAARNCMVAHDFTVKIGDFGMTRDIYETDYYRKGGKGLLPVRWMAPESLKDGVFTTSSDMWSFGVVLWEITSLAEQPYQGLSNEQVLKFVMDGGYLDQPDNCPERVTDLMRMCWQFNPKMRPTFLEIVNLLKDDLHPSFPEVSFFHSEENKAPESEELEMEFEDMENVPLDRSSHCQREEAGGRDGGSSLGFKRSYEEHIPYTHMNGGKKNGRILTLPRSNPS
Procedure: as §1, §2

RCC4 [1] = assay: ATP levels (bioluminescence), VHL-deficient cells; assay type: cell-based, human
Procedure: as §1
We next investigated how a decrease in glycolysis could lead to selective necrotic cell death. One possibility is that the reduction in glycolysis lowers the availability of pyruvate, the essential precursor for the generation of acetyl-CoA. […] We therefore examined oxygen consumption as a marker of oxidative phosphorylation and ATP production in treated and untreated cells. […] However, the decrease in glucose uptake in response to treatment with compound 47 in VHL-deficient cells results in a 75% decrease in ATP levels (FIG. 3G). […]

CDK6/cyclinD3 = target: T3, CDK6/cyclinD3 (Homo sapiens, UniProt Q00534); assay: In vitro kinase activity (Millipore KinaseProfiler): CDK6/cyclinD3; assay type: biochemical; details: no head or unit printed
T3 construct: purchased Millipore (KinaseProfiler service)
T3 sequence (Q00534 whole entry, species assumed): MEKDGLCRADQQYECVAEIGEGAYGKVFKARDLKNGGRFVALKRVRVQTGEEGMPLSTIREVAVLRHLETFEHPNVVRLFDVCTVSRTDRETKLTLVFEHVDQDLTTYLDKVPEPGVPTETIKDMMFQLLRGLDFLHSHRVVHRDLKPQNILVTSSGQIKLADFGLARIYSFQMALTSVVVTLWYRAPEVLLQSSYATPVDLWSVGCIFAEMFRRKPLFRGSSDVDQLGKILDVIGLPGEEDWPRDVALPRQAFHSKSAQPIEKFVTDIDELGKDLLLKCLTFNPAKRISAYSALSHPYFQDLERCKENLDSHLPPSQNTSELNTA
T3 sequence (P30281 whole entry partner, species assumed): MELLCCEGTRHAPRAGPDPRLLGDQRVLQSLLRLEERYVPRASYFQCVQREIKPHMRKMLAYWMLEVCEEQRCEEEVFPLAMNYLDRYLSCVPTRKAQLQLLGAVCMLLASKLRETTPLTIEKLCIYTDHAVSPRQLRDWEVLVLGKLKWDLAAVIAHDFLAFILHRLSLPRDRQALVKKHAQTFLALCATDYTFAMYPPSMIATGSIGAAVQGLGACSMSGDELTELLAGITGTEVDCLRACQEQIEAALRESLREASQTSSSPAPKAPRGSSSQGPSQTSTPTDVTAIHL
Procedure: as §1, §2

ASK1 = target: T4, ASK1 (Homo sapiens, UniProt Q99683); assay: In vitro kinase activity (Millipore KinaseProfiler): ASK1; assay type: biochemical; details: no head or unit printed
T4 construct: purchased Millipore (KinaseProfiler service)
T4 sequence (Q99683 whole entry, species assumed): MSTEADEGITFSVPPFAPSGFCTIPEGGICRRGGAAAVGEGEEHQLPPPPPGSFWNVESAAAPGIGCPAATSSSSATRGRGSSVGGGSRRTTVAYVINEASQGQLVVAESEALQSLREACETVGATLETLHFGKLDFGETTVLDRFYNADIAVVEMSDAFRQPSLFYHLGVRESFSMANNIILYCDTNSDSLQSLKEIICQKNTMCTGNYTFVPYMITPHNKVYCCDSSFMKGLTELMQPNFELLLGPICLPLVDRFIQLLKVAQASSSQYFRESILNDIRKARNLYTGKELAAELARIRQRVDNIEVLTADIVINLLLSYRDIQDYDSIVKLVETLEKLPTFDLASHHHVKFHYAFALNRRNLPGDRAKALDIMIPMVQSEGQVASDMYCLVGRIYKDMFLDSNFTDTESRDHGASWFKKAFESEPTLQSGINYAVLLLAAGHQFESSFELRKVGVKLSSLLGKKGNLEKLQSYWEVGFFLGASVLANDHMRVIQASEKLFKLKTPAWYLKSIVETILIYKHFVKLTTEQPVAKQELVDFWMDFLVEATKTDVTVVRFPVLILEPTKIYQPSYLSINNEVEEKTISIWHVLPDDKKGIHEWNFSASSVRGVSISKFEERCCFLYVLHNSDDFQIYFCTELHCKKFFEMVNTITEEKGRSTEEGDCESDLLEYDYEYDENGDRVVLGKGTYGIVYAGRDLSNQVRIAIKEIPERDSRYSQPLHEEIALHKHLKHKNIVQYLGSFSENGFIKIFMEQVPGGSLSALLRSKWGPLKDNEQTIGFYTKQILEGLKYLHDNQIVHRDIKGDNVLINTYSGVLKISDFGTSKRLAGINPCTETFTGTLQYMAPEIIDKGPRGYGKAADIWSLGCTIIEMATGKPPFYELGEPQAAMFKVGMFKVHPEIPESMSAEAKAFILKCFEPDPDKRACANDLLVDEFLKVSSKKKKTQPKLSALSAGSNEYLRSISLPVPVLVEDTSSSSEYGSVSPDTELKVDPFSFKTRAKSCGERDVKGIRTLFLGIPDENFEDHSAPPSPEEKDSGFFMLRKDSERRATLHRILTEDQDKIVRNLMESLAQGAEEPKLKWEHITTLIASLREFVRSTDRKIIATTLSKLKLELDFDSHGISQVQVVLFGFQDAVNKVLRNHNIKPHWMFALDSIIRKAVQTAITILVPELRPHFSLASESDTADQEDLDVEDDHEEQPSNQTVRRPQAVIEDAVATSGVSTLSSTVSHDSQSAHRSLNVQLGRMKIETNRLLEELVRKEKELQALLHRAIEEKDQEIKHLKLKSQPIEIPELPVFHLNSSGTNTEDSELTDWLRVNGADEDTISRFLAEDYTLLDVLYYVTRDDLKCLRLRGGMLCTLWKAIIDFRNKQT
Procedure: as §1, §2

RCC4 [2] = assay: Clonogenic survival, RCC4; assay type: cell-based, human
Procedure: Three hundred cells were plated into 60-mm tissue culture dishes in DMEM. The next day, cells were treated with vehicle or drug and were further incubated for an additional 10 days. […] The stain was removed and plates were washed in deionized water. Colonies were quantified. All conditions were measured in triplicate and all experiments were performed in triplicate.
For 2,3-bis[2-methoxy-4-nitro-5-sulfophenyl]-2H-tetrazolium-5-carboxanilide (XTT) assays, five thousand cells were plated in 96-well plates. The next day, vehicle (DMSO) or drug was added by serial dilution. […] Metabolism of XTT was quantified by measuring the absorbance at 450 nm. IC50s were calculated using linear interpolation. For clonogenic survival assays, three hundred cells were plated per 60 mm tissue culture dish. The cells were allowed to attach overnight and then treated with vehicle or drug for […]. […] All conditions were measured in triplicate and each experiment was done in duplicate or triplicate. To determine necrosis, cells were treated with drug for a given time point. Media and cells were collected, centrifugated, and resuspended in 0.4% trypan blue (Invitrogen). Live and dead cells were counted on a hematocytometer.

[3] = tested on: RCC4 cells transfected with siRNA to HIF-1β; assay: 3H-2-deoxyglucose uptake, RCC4 with siRNA to HIF-1β; assay type: cell-based, human; details: 5 μM, FIG. 3E
Procedure: as §1
One hundred thousand cells were plated per well in a six-well plate. The next day, cells were treated with the indicated concentration of drug and incubated for the indicated time. […] Glucose uptake was quantified with a scintillation counter.
To further investigate the relationship between HIF and compound 47 toxicity, we silenced HIF-1β in RCC4 cells and assessed its affect on glucose uptake. […]

IKKα = target: T5, IKKα (Homo sapiens, UniProt O15111); assay: In vitro kinase activity (Millipore KinaseProfiler): IKKα; assay type: biochemical; details: no head or unit printed
T5 construct: purchased Millipore (KinaseProfiler service)
T5 sequence (O15111 whole entry, species assumed): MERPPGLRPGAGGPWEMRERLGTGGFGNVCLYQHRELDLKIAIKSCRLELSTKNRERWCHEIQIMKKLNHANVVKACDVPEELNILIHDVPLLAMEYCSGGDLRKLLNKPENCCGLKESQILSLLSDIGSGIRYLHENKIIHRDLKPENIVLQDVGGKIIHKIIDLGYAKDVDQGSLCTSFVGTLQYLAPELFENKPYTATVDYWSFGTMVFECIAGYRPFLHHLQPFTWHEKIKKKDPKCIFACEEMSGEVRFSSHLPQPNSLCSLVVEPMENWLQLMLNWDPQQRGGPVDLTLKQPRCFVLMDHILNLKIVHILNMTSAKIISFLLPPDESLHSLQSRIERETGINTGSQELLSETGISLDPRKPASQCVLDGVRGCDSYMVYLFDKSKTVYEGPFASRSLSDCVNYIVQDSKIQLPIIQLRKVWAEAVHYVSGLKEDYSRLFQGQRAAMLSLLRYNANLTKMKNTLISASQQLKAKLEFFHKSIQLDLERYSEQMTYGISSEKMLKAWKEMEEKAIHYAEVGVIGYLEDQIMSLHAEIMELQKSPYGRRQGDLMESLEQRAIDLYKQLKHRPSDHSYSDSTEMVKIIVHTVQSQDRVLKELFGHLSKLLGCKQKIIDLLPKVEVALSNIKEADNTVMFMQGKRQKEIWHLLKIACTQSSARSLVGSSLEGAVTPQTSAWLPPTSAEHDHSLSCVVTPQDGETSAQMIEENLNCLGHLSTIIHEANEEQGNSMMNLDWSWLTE
Procedure: as §1, §2

T1 sequence (P21709 26-976, species assumed): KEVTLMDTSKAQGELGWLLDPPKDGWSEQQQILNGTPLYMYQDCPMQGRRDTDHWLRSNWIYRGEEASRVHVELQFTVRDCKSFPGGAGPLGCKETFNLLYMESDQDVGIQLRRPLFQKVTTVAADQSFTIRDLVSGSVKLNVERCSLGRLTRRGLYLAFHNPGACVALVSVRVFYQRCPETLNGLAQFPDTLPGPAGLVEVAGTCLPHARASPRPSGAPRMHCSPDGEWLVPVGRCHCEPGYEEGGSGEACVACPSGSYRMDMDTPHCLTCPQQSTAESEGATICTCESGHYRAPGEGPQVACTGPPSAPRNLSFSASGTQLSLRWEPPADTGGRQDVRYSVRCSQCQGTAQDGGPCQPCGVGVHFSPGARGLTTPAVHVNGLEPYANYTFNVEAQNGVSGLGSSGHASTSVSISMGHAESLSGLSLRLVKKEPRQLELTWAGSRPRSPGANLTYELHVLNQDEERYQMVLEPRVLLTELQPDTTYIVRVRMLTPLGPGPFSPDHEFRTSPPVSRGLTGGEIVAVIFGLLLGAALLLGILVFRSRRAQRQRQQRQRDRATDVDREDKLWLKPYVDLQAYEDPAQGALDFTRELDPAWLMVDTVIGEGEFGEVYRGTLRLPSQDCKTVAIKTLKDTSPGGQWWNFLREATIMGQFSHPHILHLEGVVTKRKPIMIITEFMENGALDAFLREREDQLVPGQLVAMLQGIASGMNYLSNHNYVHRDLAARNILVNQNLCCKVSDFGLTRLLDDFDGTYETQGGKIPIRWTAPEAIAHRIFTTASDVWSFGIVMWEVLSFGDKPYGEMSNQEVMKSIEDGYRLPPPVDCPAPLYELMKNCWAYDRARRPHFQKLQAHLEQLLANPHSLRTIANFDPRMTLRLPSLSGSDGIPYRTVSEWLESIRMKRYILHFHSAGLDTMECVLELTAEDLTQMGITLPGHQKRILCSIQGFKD

For `CC(C)(C)c1ccc(S(=O)(=O)NCc2ccc(C(=O)Nc3cccnc3)cc2)cc1` [Example 38, 4-((4-tert-Butylphenylsulfonamido)methyl)-N-(pyridin-3-yl)benzamide], the EphA1 kinase activity (EphA1) was 102, the AMPK kinase activity (AMPK) was 92% and the “sensitivity of ACHN cells with VHL silenced by shRNA (clonogenic survival)” value (ACHN shVHL) was “sensitive”. The IR kinase activity (IR) was 121%, the “decrease in ATP levels in VHL-deficient cells” value (RCC4 [1]; 5 μM, FIG. 3G) was 75% and the “concentration dependence of inhibition of ATP production” value (RCC4 [1]; FIG. 3H) was “dose-dependent”. The CDK6/cyclinD3 kinase activity (CDK6/cyclinD3) was 105, the ASK1 kinase activity (ASK1) was 129% and the “reversibility of induced cell death” value (RCC4 [2]; 5 μM, media replaced after indicated time, total 10 days) was “irreversible after three days”. For the same molecule, the “clonogenic survival of RCC4” value (RCC4 [2]; RCC4 (VHL-deficient), 5 μM, 10 days) was “specifically toxic to RCC4 cells”, the “RCC4 cells killed following treatment” value (RCC4 [2]; compound 5 μM, FIG. 2D) was “Approximately 80%” and the “glucose uptake in RCC4 with HIF-1β silenced” value [3] was “insensitive”. It also gave an IKKα kinase activity (IKKα) of 102.
